Calls of active or inactive are those of the source. No cut-off for these calls is given here.

The test system of assay [1] is J774. The experiment in a line: Effect on Phorbol 12-myristate 13-acetate-induced cellular morphology in mouse J774 macrophage cells at 20 uM by video microscopy. It counts as functional, cell-based.
The test system of assay [2] is J774. The experiment in a line: Effect on Phorbol 12-myristate 13-acetate-induced membrane ruffling in mouse J774 macrophage cells at 20 uM by video microscopy. The assay is classed as functional, cell-based.
For assay [3], the system named is J774. The assay can be described thus: Effect on Phorbol 12-myristate 13-acetate-induced macropinocytosis in mouse J774 macrophage cells at 20 uM by video microscopy. It counts as functional, cell-based.
Assay [4] deals with Serine/threonine-protein kinase PknG (Mycobacterium tuberculosis) (UniProt P9WI73). The experiment in a line: Inhibition of Mycobacterium tuberculosis Protein kinase G by radiometric ATP consumptive assay.
Serine/threonine-protein kinase PknG (Mycobacterium tuberculosis), sequence (P9WI73 whole entry): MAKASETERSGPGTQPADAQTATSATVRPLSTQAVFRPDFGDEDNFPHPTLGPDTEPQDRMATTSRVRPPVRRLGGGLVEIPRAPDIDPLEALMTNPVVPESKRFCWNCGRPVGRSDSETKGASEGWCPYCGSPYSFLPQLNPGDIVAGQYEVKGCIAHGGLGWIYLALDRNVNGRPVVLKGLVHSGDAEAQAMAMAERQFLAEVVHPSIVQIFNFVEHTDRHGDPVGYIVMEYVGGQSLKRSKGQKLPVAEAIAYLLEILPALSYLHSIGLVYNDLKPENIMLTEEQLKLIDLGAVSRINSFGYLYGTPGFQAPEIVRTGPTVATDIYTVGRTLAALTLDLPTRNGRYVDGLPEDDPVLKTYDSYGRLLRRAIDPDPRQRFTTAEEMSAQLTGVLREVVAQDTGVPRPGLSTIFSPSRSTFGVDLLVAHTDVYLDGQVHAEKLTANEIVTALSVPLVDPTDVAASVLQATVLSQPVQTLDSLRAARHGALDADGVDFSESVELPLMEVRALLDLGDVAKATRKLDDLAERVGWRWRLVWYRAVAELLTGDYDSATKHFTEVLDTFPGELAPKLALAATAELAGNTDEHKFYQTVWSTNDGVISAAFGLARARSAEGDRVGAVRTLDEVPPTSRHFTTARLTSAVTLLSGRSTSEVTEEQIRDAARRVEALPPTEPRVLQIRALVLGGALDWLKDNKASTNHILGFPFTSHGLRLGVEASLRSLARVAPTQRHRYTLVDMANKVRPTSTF

`NC(=O)c1c(NC(=O)C2CC2)sc2c1CCCC2`: the outcome in assay [1], in assay [2] and in assay [3] was inactive. The outcome in assay [4] was Active.

The record behind these values is ChEMBL document CHEMBL1147038, “Structural basis for the specific inhibition of protein kinase G, a virulence factor of Mycobacterium tuberculosis” (Proc Natl Acad Sci U S A, 2007).
